Assay results as given in patent US11384060B2, “Amide compounds and use thereof” (ALPHALA CO., LTD., priority 2017, dated 2022).
Where two headings read alike, the source gives them in different places.

Assays:
[1] = molecular target: T1, glucagon receptor (GCGR) overexpressed CHO-K1 cells or human primary hepatocytes (Homo sapiens, UniProt P47871); test: Glucagon cAMP inhibition assay (Cisbio cAMP Dynamic 2 HTRF); format: cell-based
T1 construct: expressed in transfected cells; host or cells: GCGR overexpressed CHO-K1 cells or human primary hepatocytes (endogenous receptor)
T1 sequence (P47871 26-477): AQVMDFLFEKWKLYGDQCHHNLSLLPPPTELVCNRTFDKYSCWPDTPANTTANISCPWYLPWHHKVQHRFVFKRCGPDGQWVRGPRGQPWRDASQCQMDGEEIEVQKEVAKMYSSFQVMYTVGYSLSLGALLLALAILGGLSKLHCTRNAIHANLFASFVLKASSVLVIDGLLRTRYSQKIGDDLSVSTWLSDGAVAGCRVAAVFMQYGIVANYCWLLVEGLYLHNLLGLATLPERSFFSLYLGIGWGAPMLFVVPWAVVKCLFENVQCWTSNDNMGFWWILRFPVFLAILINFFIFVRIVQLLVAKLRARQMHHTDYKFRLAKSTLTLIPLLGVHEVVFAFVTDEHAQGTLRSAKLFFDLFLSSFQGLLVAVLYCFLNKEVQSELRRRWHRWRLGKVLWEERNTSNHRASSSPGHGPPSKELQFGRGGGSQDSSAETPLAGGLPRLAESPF
How it was run: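 HTRF read-out of glucagon-induced cAMP, with IC50 from non-linear regression. Cells (GCGR CHO-K1 or human primary hepatocytes) in HBSS/0.1% BSA/800 nM IBMX took compound dilutions for 30 min (final DMSO 1%), then EC50-level glucagon for 30 min at room temperature, then a 60 min lysis/detection step.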

[2] = molecular target: T2, glucagon receptor (GCGR) (Homo sapiens, UniProt P47871); test: I125-glucagon binding assay (competition, GCGR membrane fractions)
T2 construct: expressed in transfected cells; host or cells: CHO-K1 cells overexpressing GCGR (membrane fractions)
T2 sequence (P47871 26-477): as above
How it was run: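 Competition of 0.0625 nM (final) I^125-glucagon for 30 min at 25° C, after 5 min compound preincubation, using 7.5 μg/well GCGR-overexpressing CHO-K1 membranes in 50 mM Tris pH 7.4, 0.5% BSA. Filtration onto PEI-coated GF/B, micro-beta counting, and non-linear regression gave IC50.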

[3] = inhibition of glucagon (EC50 concentration) induced cAMP production
[4] = competition with I125-glucagon 0.0625 nM, membrane fractions of GCGR overexpressed CHO-K1 cells

IC50 cAMP [1, 3]	IC50 [2, 4]	IC50 cAMP [1]	IC50 [2]	Compound
9828 nM	539 nM	–	–	CC(C)[C@@H](COc1cnc(-c2ccc(C(F)(F)F)cc2Cl)nc1)Nc1ccc(C(=O)NCCC(=O)O)cc1 [Compound 12-4]
2357 nM	451 nM	–	–	CCCC[C@@H](COc1cnc(-c2ccc(C(F)(F)F)cc2Cl)nc1)Nc1ccc(C(=O)NCCC(=O)O)cc1 [Compound 12-5, (S)-3-(4-((1-((2-(2-chloro-4-(trifluoromethyl)phenyl)pyrimidin-5-yl)oxy)hexan-2-yl)amino)benzamido)propanoic Acid]
>30000 nM	1670 nM	–	–	CC(C)[C@@H](COc1cnc(-c2ccc(Cl)cc2Cl)nc1)Nc1ccc(C(=O)NCCC(=O)O)cc1 [Compound 12-6, (S)-3-(4-((1-((2-(2,4-dichlorophenyl)pyrimidin-5-yl)oxy)-3-methylbutan-2-yl)amino)benzamido)propanoic Acid]
3868 nM	888 nM	–	–	CCCC[C@@H](COc1cnc(-c2ccc(Cl)cc2Cl)nc1)Nc1ccc(C(=O)NCCC(=O)O)cc1 [Compound 12-7, (S)-3-(4-((1-((2-(2,4-dichlorophenyl)pyrimidin-5-yl)oxy)hexan-2-yl)amino)benzamido)propanoic Acid]
2719 nM	331 nM	–	–	CCC(C)[C@@H](COc1cnc(-c2ccc(C(F)(F)F)cc2Cl)nc1)Nc1ccc(C(=O)NCCC(=O)O)cc1 (stereo partly drawn) [Compound 12-8, 3-(4-(((2S)-1-((2-(2-chloro-4-(trifluoromethyl)phenyl)pyrimidin-5-yl)oxy)-3-methylpentan-2-yl)amino)benzamido)propanoic Acid]
19185 nM	501 nM	–	–	CC(C)C[C@@H](COc1cnc(-c2ccc(C(F)(F)F)cc2Cl)nc1)Nc1ccc(C(=O)NCCC(=O)O)cc1 [Compound 12-9, (S)-3-(4-((1-((2-(2-chloro-4-(trifluoromethyl)phenyl)pyrimidin-5-yl)oxy)-4-methylpentan-2-yl)amino)benzamido)propanoic Acid]
890 nM	337 nM	–	–	CCC(C)[C@@H](COc1cnc(-c2ccc(Cl)cc2Cl)nc1)Nc1ccc(C(=O)NCCC(=O)O)cc1 (stereo partly drawn) [Compound 12-10, 3-(4-(((2S)-1-((2-(2,4-dichlorophenyl)pyrimidin-5-yl)oxy)-3-methylpentan-2-yl)amino)benzamido)propanoic Acid]
3585 nM	233 nM	–	–	CC(C)C[C@@H](COc1cnc(-c2ccc(Cl)cc2Cl)nc1)Nc1ccc(C(=O)NCCC(=O)O)cc1 [Compound 12-11, (S)-3-(4-((1-((2-(2,4-dichlorophenyl)pyrimidin-5-yl)oxy)-4-methylpentan-2-yl)amino)benzamido)propanoic Acid]
157 nM	46 nM	–	–	CC[C@H](C)[C@@H](COc1ccc(-c2cc3ccccc3o2)c(OC)c1)Nc1ccc(C(=O)NCCC(=O)O)cc1 [Compound 13-1, 3-(4-(((2S,3S)-1-(4-(benzofuran-2-yl)-3-methoxyphenoxy)-3-methylpentan-2-yl)amino)benzamido)propanoic Acid]
254 nM	92 nM	–	–	CC[C@H](C)[C@@H](COc1ccc(-c2ccc(Cl)cc2Cl)c(OC)c1)Nc1ccc(C(=O)NCCC(=O)O)cc1 [Compound 13-2, 3-(4-(((2S,3S)-1-((2′,4′-dichloro-2-methoxy-[1,1′-biphenyl]-4-yl)oxy)-3-methylpentan-2-yl)amino)benzamido)propanoic Acid]
71 nM	57 nM	–	–	CC[C@H](C)[C@@H](COc1ccc(-c2ccc(C(F)(F)F)cc2Cl)c(OC)c1)Nc1ccc(C(=O)NCCC(=O)O)cc1 [Compound 13-3, 3-(4-(((2S,3S)-1-((2′-chloro-2-methoxy-4′-(trifluoromethyl)-[1,1′-biphenyl]-4-yl)oxy)-3-methylpentan-2-yl)amino)benzamido)propanoic Acid]
131 nM	68 nM	–	–	CC[C@H](C)[C@@H](COc1ccc(-c2ccc(C(F)(F)F)cc2F)c(OC)c1)Nc1ccc(C(=O)NCCC(=O)O)cc1 [Compound 13-4]
112 nM	111 nM	–	–	COc1cc(OC[C@@H](Nc2ccc(C(=O)NCCC(=O)O)cc2)C(C)C)ccc1-c1cc2ccccc2o1 [Compound 13-5, (S)-3-(4-((1-(4-(benzofuran-2-yl)-3-methoxyphenoxy)-3-methylbutan-2-yl)amino)benzamido)propanoic Acid]
97 nM	89 nM	–	–	COc1cc(OC[C@@H](Nc2ccc(C(=O)NCCC(=O)O)cc2)C(C)C)ccc1-c1ccc(C(F)(F)F)cc1Cl [Compound 13-6, (S)-3-(4-((1-((2′-chloro-2-methoxy-4′-(trifluoromethyl)-[1,1′-biphenyl]-4-yl)oxy)-3-methylbutan-2-yl)amino)benzamido)propanoic Acid]
139 nM	95 nM	–	–	COc1cc(OC[C@@H](Nc2ccc(C(=O)NCCC(=O)O)cc2)C(C)C)ccc1-c1ccc(Cl)cc1Cl [Compound 13-7, (S)-3-(4-((1-((2′,4′-dichloro-2-methoxy-[1,1′-biphenyl]-4-yl)oxy)-3-methylbutan-2-yl)amino)benzamido)propanoic Acid]
77.8 nM	79 nM	–	–	COc1cc(OC[C@@H](Nc2ccc(C(=O)NCCC(=O)O)cc2)C(C)C)ccc1-c1ccc(C(F)(F)F)cc1F [Compound 13-8, (S)-3-(4-((1-((2′-fluoro-2-methoxy-4′-(trifluoromethyl)-[1,1′-biphenyl]-4-yl)oxy)-3-methylbutan-2-yl)amino)benzamido)propanoic Acid]
219 nM	54 nM	–	–	CCCC[C@@H](COc1ccc(-c2ccc(Cl)cc2Cl)c(OC)c1)Nc1ccc(C(=O)NCCC(=O)O)cc1 [Compound 13-9, (S)-3-(4-((1-((2′,4′-dichloro-2-methoxy-[1,1′-biphenyl]-4-yl)oxy)hexan-2-yl)amino)benzamido)propanoic Acid]
246 nM	92 nM	–	–	COc1cc(OC[C@@H](Nc2ccc(C(=O)NCCC(=O)O)cc2)C(C)C)ccc1-c1ccc(C(F)(F)F)cc1 [Compound 13-10, (S)-3-(4-((1-((2-methoxy-4′-(trifluoromethyl)-[1,1′-biphenyl]-4-yl)oxy)-3-methylbutan-2-yl)amino)benzamido)propanoic Acid]
118 nM	47 nM	–	–	CCCC[C@@H](COc1ccc(-c2ccc(C(F)(F)F)cc2)c(OC)c1)Nc1ccc(C(=O)NCCC(=O)O)cc1 [Compound 13-11, (S)-3-(4-((1-((2-methoxy-4′-(trifluoromethyl)-[, 1′-biphenyl]-4-yl)oxy)hexan-2-yl)amino)benzamido)propanoic Acid]
23347 nM	608 nM	–	–	CC[C@H](C)[C@@H](COc1ccc(-c2nnc(-c3ccccc3)o2)c(OC)c1)Nc1ccc(C(=O)NCCC(=O)O)cc1 [Compound 13-12, 3-(4-(((2S,3S)-1-(3-methoxy-4-(5-phenyl-1,3,4-oxadiazol-2-yl)phenoxy)-3-methylpentan-2-yl)amino)benzamido)propanoic Acid]
66 nM	15 nM	–	–	CCCC[C@@H](COc1ccc(-c2ccc(C(F)(F)F)cc2F)c(OC)c1)Nc1ccc(C(=O)NCCC(=O)O)cc1 [Compound 13-14, (S)-3-(4-((1-((2′-fluoro-2-methoxy-4′-(trifluoromethyl)-[1,1′-biphenyl]-4-yl)oxy)hexan-2-yl)amino)benzamido)propanoic Acid]
1232 nM	750 nM	–	–	COc1cc(OC[C@@H](Nc2ccc(C(=O)NCCC(=O)O)cn2)C(C)C)ccc1-c1cc2ccccc2o1 [Compound 14-1, (S)-3-(6-((1-(4-(benzofuran-2-yl)-3-methoxyphenoxy)-3-methylbutan-2-yl)amino)nicotinamido)propanoic Acid]
508 nM	74 nM	–	–	CCCC[C@@H](COc1ccc(-c2ccc(C(F)(F)F)cc2F)c(OC)c1)Nc1ccc(C(=O)NCCC(=O)O)cn1 [Compound 14-2, (S)-3-(6-((1-((2′-fluoro-2-methoxy-4′-(trifluoromethyl)-[1,1′-biphenyl]-4-yl)oxy)hexan-2-yl)amino)nicotinamido)propanoic Acid]
–	–	7356 nM	388 nM	O=C(NCc1nn[nH]n1)c1ccc(N[C@H](COc2ccc(-c3cc4ccccc4o3)cn2)c2ccccc2)cc1 [Compound 15-1, (S)—N-((2H-tetrazol-5-yl)methyl)-4-((2-((5-(benzofuran-2-yl)pyridin-2-yl)oxy)-1-phenylethyl)amino)benzamide]
–	–	1543 nM	390 nM	CC(C)[C@@H](COc1ccc(-c2ccc(C(F)(F)F)cc2)cn1)Nc1ccc(C(=O)NCc2nnn[nH]2)cc1 [Compound 15-2, (S)—N-((1H-tetrazol-5-yl)methyl)-4-((3-methyl-1-((5-(4-(trifluoromethyl)phenyl)pyridin-2-yl)oxy)butan-2-yl)amino)benzamide]
–	–	111 nM	51 nM	CC(C)[C@@H](COc1ccc(-c2cc3ccccc3o2)cn1)Nc1ccc(C(=O)NCCC(=O)O)cc1 [Compound 15-3, (S)-3-(4-((1-((5-(benzofuran-2-yl)pyridin-2-yl)oxy)-3-methylbutan-2-yl)amino)benzamido)propanoic Acid]
–	–	3241 nM	626 nM	CC(C)(C)c1ccc(-c2ccc(OC[C@@H](Nc3ccc(C(=O)NCCC(=O)O)cc3)c3ccccc3)nc2)cc1 [Compound 15-4]
